PubChem BioAssay (NCI)
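Interpolation was linear, between the two tested concentrations surrounding the appropriate level; five concentrations were tested over 48 hours in 96-well plates. GI50 = concentration required for 50% inhibition of growth. TGI is the concentration that stops growth completely.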

Tests used:
Assay in all cases: inhibition of tumour cell growth, NCI panel, 48 h
OVCAR-5 ovarian = tested on: OVCAR-5 ovarian
EKVX NSCLC = tested on: EKVX NSCLC
SK-MEL-2 melanoma = tested on: SK-MEL-2 melanoma
NCI-H23 lung = tested on: NCI-H23 lung
M14 melanoma = tested on: M14 melanoma
SW-620 colon = tested on: SW-620 colon
NCI/ADR-RES ovarian = tested on: NCI/ADR-RES ovarian
UO-31 renal = tested on: UO-31 renal
ACHN renal = tested on: ACHN renal
LOX IMVI melanoma = tested on: LOX IMVI melanoma
UACC-62 melanoma = tested on: UACC-62 melanoma
OVCAR-3 ovarian = tested on: OVCAR-3 ovarian
MDA-MB-231 breast = tested on: MDA-MB-231 breast
HT29 colon = tested on: HT29 colon
HOP-92 NSCLC = tested on: HOP-92 NSCLC
786-0 renal = tested on: 786-0 renal
SK-MEL-5 melanoma = tested on: SK-MEL-5 melanoma
SF-268 CNS = tested on: SF-268 CNS
PC-3 prostate = tested on: PC-3 prostate
A549 NSCLC = tested on: A549 NSCLC
SN12C renal = tested on: SN12C renal
HOP-62 NSCLC = tested on: HOP-62 NSCLC
SF-295 CNS = tested on: SF-295 CNS
U251 CNS = tested on: U251 CNS
T-47D breast = tested on: T-47D breast
KM12 colon = tested on: KM12 colon
HCT-15 colon = tested on: HCT-15 colon
OVCAR-8 ovarian = tested on: OVCAR-8 ovarian
MOLT-4 leukemia = tested on: MOLT-4 leukemia
NCI-H226 lung = tested on: NCI-H226 lung
SK-MEL-28 melanoma = tested on: SK-MEL-28 melanoma
COLO 205 colon = tested on: COLO 205 colon
K-562 leukemia = tested on: K-562 leukemia
MDA-MB-435 = tested on: MDA-MB-435
RXF 393 renal = tested on: RXF 393 renal
HCT-116 colon = tested on: HCT-116 colon
CAKI-1 renal = tested on: CAKI-1 renal
MCF7 breast = tested on: MCF7 breast
UACC-257 melanoma = tested on: UACC-257 melanoma
NCI-H460 lung = tested on: NCI-H460 lung
NCI-H522 lung = tested on: NCI-H522 lung
TK-10 renal = tested on: TK-10 renal
IGROV1 ovarian = tested on: IGROV1 ovarian
BT-549 breast = tested on: BT-549 breast
SNB-19 CNS = tested on: SNB-19 CNS

O=C(/C=C/c1cc(O)ccc1O)c1ccc(Cl)cc1
GI50 (OVCAR-5 ovarian): 17.4 µM | TGI (OVCAR-5 ovarian): 38.7 µM | GI50 (EKVX NSCLC): 23.4 µM | TGI (EKVX NSCLC): 54.7 µM | GI50 (SK-MEL-2 melanoma): 60.7 µM | TGI (SK-MEL-2 melanoma): > 100 µM | GI50 (NCI-H23 lung): 19.1 µM | TGI (NCI-H23 lung): 43.3 µM | GI50 (M14 melanoma): 19.8 µM | TGI (M14 melanoma): 47.1 µM | GI50 (SW-620 colon): 61.9 µM | TGI (SW-620 colon): > 100 µM | GI50 (NCI/ADR-RES ovarian): 19.6 µM | TGI (NCI/ADR-RES ovarian): 53.9 µM | GI50 (UO-31 renal): 96.7 µM | TGI (UO-31 renal): > 100 µM | GI50 (ACHN renal): 25.2 µM | TGI (ACHN renal): > 100 µM | GI50 (LOX IMVI melanoma): 18.4 µM | TGI (LOX IMVI melanoma): 48.4 µM | GI50 (UACC-62 melanoma): 17.5 µM | TGI (UACC-62 melanoma): 40.1 µM | GI50 (OVCAR-3 ovarian): 57.7 µM | TGI (OVCAR-3 ovarian): > 100 µM | GI50 (MDA-MB-231 breast): 11.7 µM | TGI (MDA-MB-231 breast): 43.5 µM | GI50 (HT29 colon): 54.4 µM | TGI (HT29 colon): > 100 µM | GI50 (HOP-92 NSCLC): > 100 µM | TGI (HOP-92 NSCLC): > 100 µM | GI50 (786-0 renal): 17.8 µM | TGI (786-0 renal): 61 µM | GI50 (SK-MEL-5 melanoma): 55 µM | TGI (SK-MEL-5 melanoma): > 100 µM | GI50 (SF-268 CNS): 20.7 µM | TGI (SF-268 CNS): > 100 µM | GI50 (PC-3 prostate): 90.4 µM | TGI (PC-3 prostate): > 100 µM | GI50 (A549 NSCLC): 31.8 µM | TGI (A549 NSCLC): > 100 µM | GI50 (SN12C renal): 18.1 µM | TGI (SN12C renal): 44.7 µM | GI50 (HOP-62 NSCLC): 20.5 µM | TGI (HOP-62 NSCLC): 52.2 µM | GI50 (SF-295 CNS): 35.3 µM | TGI (SF-295 CNS): > 100 µM | GI50 (U251 CNS): 19.6 µM | TGI (U251 CNS): 51.2 µM | GI50 (T-47D breast): 36.5 µM | TGI (T-47D breast): > 100 µM | GI50 (KM12 colon): 31.8 µM | TGI (KM12 colon): > 100 µM | GI50 (HCT-15 colon): 28 µM | TGI (HCT-15 colon): > 100 µM | GI50 (OVCAR-8 ovarian): 57.2 µM | TGI (OVCAR-8 ovarian): > 100 µM | GI50 (MOLT-4 leukemia): > 100 µM | TGI (MOLT-4 leukemia): > 100 µM | GI50 (NCI-H226 lung): 22.3 µM | TGI (NCI-H226 lung): 66.8 µM | GI50 (SK-MEL-28 melanoma): 60.4 µM | TGI (SK-MEL-28 melanoma): > 100 µM | GI50 (COLO 205 colon): 38.2 µM | TGI (COLO 205 colon): > 100 µM | GI50 (K-562 leukemia): 46.1 µM | TGI (K-562 leukemia): > 100 µM | GI50 (MDA-MB-435): 30 µM | TGI (MDA-MB-435): > 100 µM | GI50 (RXF 393 renal): > 100 µM | TGI (RXF 393 renal): > 100 µM | GI50 (HCT-116 colon): 16.7 µM | TGI (HCT-116 colon): 41.6 µM | GI50 (CAKI-1 renal): 44 µM | TGI (CAKI-1 renal): > 100 µM | GI50 (MCF7 breast): 48.5 µM | TGI (MCF7 breast): > 100 µM | GI50 (UACC-257 melanoma): 51.3 µM | TGI (UACC-257 melanoma): > 100 µM | GI50 (NCI-H460 lung): 32.5 µM | TGI (NCI-H460 lung): > 100 µM | GI50 (NCI-H522 lung): 61.8 µM | TGI (NCI-H522 lung): > 100 µM | GI50 (TK-10 renal): 31.6 µM | TGI (TK-10 renal): > 100 µM | GI50 (IGROV1 ovarian): > 100 µM | TGI (IGROV1 ovarian): > 100 µM | GI50 (BT-549 breast): 25.9 µM | TGI (BT-549 breast): 51.8 µM | GI50 (SNB-19 CNS): 36.8 µM | TGI (SNB-19 CNS): > 100 µM
